Test results published in patent publication US12168013B2, “Antiviral prodrugs and nanoformulations thereof” (Board of Regents of the University of Nebraska, priority 2018, dated 2024).
Converted amounts (≈) assume the structure as drawn. “And” between values parts separate entries of the source, which are not always exact repeats. Identical values can stand only once. Values belong to the molecule of their own block, whether it stands above or below them.

What was measured:
[1] = Aqueous solubility; format: physicochemical; settings: optima water, room temperature; for solubility at 24 h: thermodynamic from solid; for aqueous solubility: 24 hours
Protocol: The aqueous solubility of CAB, MCAB, M2CAB and M3CAB in optima water was determined by adding the excess drug or prodrug powder in 1 mL water to make the saturated aqueous solution. The mixture was stirred for 24 hours at room temperature. Further, the solution was centrifuged at 14000 rpm for 10 minutes to pellet the undissolved powder. The supernatant was collected, lyophilized and dissolved in methanol for the drug content analysis by UPLC UV/Vis.

[2] = test system: HIV-1ADA; assay: Half-maximum effective concentration (EC50) assay, HIV-1 RT activity in MDM; format: cell-based; settings: HIV-1ADA MOI 0.1, 10 days
Protocol: MDMs were plated in clear flat-bottom 24-well plates at a density of 0.8×10^6 cells/well. […] Following treatment, cells were washed with PBS and cultured in fresh culture medium with half-media replacement every other day. At 1, 5, 10, 15, 20, 25 and 30 days after the treatment, the cells were infected with HIV-1ADA (a macrophage tropic viral strain) at a multiplicity of infection (MOI) of 0.1 infectious particles per cell for 16 hours. Following infection period, MDM were washed with PBS and replenished with fresh media. Cells were cultured for next ten days with half-media replacement every other day, and the full media replacement on the 8th day. The culture media was collected on the 10th day after infection for the measurement of HIV-1 RT activity (Kalter, et al., J. Immunol. (1991) 146:3396-3404; Nowacek, et al., J. Neuroimmune Pharm. (2010) 5:592-601). The extent of infection was expressed as a percent of RT activity by infected MDM that were not treated. Cells were fixed in 2% PFA, and expression of HIV-1 p24 antigen was determined by immunocytochemistry (Nowacek, et al., J. Neuroimmune Pharm. (2010) 5:592-601).
MDM were plated in clear flat-bottom 96-well plates (0.08×10^6 cells/well). […] After 4 hours of viral challenge, cells were washed and given fresh media containing drug (0.1-1000 nM). Subsequently, cell supernatants were collected 10 days later and assayed for HIV-1 RT activity as described above.

[3] = test system: HIV-1; settings: protein-adjusted; cited from earlier work
[4] = after oral administration; cited from earlier work
[5] = 1-octanol solubility; settings: organic solvent or mixture
[6] = Plasma cleavage drug hydrolysis kinetics; format: in vitro ADME, mouse, rat, rabbit, monkey, dog, and human; settings: for prodrug cleavage in plasma: plasma of all species tested
Protocol: The hydrolysis kinetics of MCAB, M2CAB and M3CAB and relative release of active drug were determined in plasma of different species (mouse, rat, rabbit, monkey, dog, and human). MCAB, M2CAB or M3CAB (1 μM) were incubated in 100 μL plasma at 37° C. At different time points, 1 mL acidified methanol (0.1% formic acid and 25 mM ammonium formate to avoid further prodrug hydrolysis) was added to each sample and vortexed for 3 minutes to stop the reaction. For 0-minute time-point, a 100 μL ice cold plasma was spiked with prodrug stock solution, and 1 ml of ice cold acidic methanol was added immediately. Following the addition of methanol, samples were centrifuged at 15,000 g for 10 minutes, and collected supernatant was analyzed for drug content by UPLC-MS/MS (Waters Xevo TQ-XS).

[7] = Chemical stability at acidic, neutral and basic pH; format: physicochemical; settings: for prodrug hydrolysis: 24 hours
Protocol: The stability of MCAB, M2CAB and M3CAB in acidic (pH 1), basic (pH 11) and neutral (pH 7) conditions at room temperature and elevated temperature (37° C.) was determined. The stock solution of each prodrug was prepared in DMSO at a concentration of 1 mg/mL. For acidic, basic and neutral assays, 100 μL of stock solution of each prodrug was added to 1900 μL of 0.1 M HCl, 0.1 M NaOH or optima-grade water (pH adjusted to 7), respectively. Samples were then incubated at room temperature and […] under shaking conditions (Innova® 42 shaker incubator, 150 rpm). Samples were withdrawn at 0, 2, 4, 8 and 24 hours and stored at −80° C. Later, samples were analyzed for drug content by UPLC-UV/Vis.

[8] = PK and biodistribution in NSG mice; format: in vivo
Protocol: Drug levels from plasma and tissues were assayed by UPLC-MS/MS. Drug levels in plasma were monitored weekly.
Following injection, blood samples were collected into heparinized tubes at day 1 post-administration and then weekly up to day 364 by cheek puncture (submandibular vein, MEDIpoint, Inc., Mineola, NY). Collected blood (25 μL) was immediately diluted into 1 mL ACN and stored at −80° C. until drug measurements. Remaining blood samples were centrifuged at 2,000 g for 8 minutes for plasma collection. Plasma was collected and stored at −80° C. for analysis of drug contents. At day 14, 28, 42 and 364 following administration, animals were humanly euthanized by isoflourane inhalation, followed by cervical dislocation. Spleen, lymph nodes, liver, lung, gut, kidney, brain, vaginal tissue, and rectal tissue were collected for quantitation of CAB and prodrug concentrations. CAB, MCAB, M2CAB and M3CAB were quantitated in mouse plasma, blood and tissues by UPLC-MS/MS using a Waters ACQUITY H-class UPLC (Waters, Milford, MA, USA) connected to a Xevo TQ-S micro mass spectrometer. All solvents for sample processing and UPLC-MS/MS analysis were LCMS-grade (Fisher). For plasma and blood samples, 25 μL of sample was added into 1 mL acetonitrile (ACN) spiked with 10 μL internal standard (IS). d3-Dolutegravir (d3-DTG), myristoylated dolutegravir (MDTG), and stearoylated darunavir (SDRV), at a final concentration of 200, 20 and 20 ng/mL, respectively, were used as ISs for CAB, MCAB and M2CAB/M3CAB analyses, respectively. Samples were vortexed and centrifuged at 17,000×g for 10 minutes at 4° C. […] For tissue drug quantitation, 3-200 mg of sample was homogenized in 4-29 volumes of 0.1% v/v formic acid and 2.5 mM ammonium formate containing 90% methanol. […] For CAB quantitation, chromatographic separation of 10 μL CAB sample was performed on a Waters ACQUITY UPLC BEH Shield RP18 column (1.7 μm, 2.1 mm×100 mm) using a 10-minute gradient of mobile phase A (7.5 mM ammonium formate in water, adjusted to pH 3 using formic acid) and mobile phase B (100% ACN) at a flow rate of 0.25 mL/minute. […]

[9] = Human immunodeficiency virus 1, 240 h

Structure (SMILES): C[C@H]1CO[C@@H]2Cn3cc(C(=O)NCc4ccc(F)cc4F)c(=O)c(O)c3C(=O)N12 [CAB, cabotegravir]
solubility at 24 h [1]: 12.1 ± 0.41 µg/mL (≈ 29.9 µM) | EC50 [2, 9]: 28.4 nM | 4×PA-IC90 [3]: 0.66 µg/mL and 0.664 µg/mL | PA-IC90 [3]: 0.166 µg/mL | systemic half-life [4]: approximately 40 hours | solubility [5]: 90 ± 2 µg/mL (≈ 222 µM)

solubility at 24 h [1]: 1.91 ± 0.23 µg/mL (≈ 2.84 µM) | prodrug cleavage in plasma ([6]; by 2 hours, average): 75% | prodrug cleavage in plasma ([6]; by 6 hours, average): 80% | prodrug hydrolysis ([7]; 37° C., acidic (pH 1)): > 95% | prodrug hydrolysis ([7]; 37° C., neutral (pH 7)): 28% | time to complete hydrolysis ([7]; 37° C., basic (pH 11)): ≤ 2 h | prodrug hydrolysis ([7]; room temperature, acidic (pH 1)): 19% | prodrug hydrolysis ([7]; room temperature, basic (pH 11)): completely hydrolyzed | prodrug hydrolysis ([7]; room temperature, neutral (pH 7)): 24% | EC50 [2, 9]: 44.7 nM | concentration at 1 day ([8]; female, NSG, mouse, whole blood, intramuscular, 45 mg/kg CAB-equivalents, day 1 post-injection, read-out: prodrug concentration in blood): 31.3 ng/mL | solubility [5]: 2640 ± 20 µg/mL (≈ 3930 µM)
Structure (SMILES): CCCCCCCCCCCCCCCCCC(=O)Oc1c2n(cc(C(=O)NCc3ccc(F)cc3F)c1=O)C[C@H]1OC[C@H](C)N1C2=O [M2CAB]

aqueous solubility [1]: 1.51 ± 0.7 µg/mL (≈ 2.07 µM) | prodrug remaining in plasma ([6]; after 24 hours of incubation): around 50% | EC50 [2]: 51.1 nM
Structure (SMILES): CCCCCCCCCCCCCCCCCCCCCC(=O)Oc1c2n(cc(C(=O)NCc3ccc(F)cc3F)c1=O)CC1OCC(C)N1C2=O (centres unmarked) [M3CAB]

aqueous solubility [1]: 2.83 ± 1.37 µg/mL (≈ 4.6 µM) | prodrug cleavage in plasma ([6]; within 30 minutes, 37° C., 1 μM): more than 85% | EC50 [2]: 34.2 nM | prodrug concentration in blood ([8]; day 1 post-injection): 22 ng/mL | prodrug levels in tissues ([8]; day 364): undetectable
Structure (SMILES): CCCCCCCCCCCCCC(=O)Oc1c2n(cc(C(=O)NCc3ccc(F)cc3F)c1=O)CC1OCC(C)N1C2=O (centres unmarked) [MCAB]
